According to PMC8534050, “Discovery of a Potent and Highly Isoform-Selective Inhibitor of the Neglected Ribosomal Protein S6 Kinase Beta 2 (S6K2)” (Cancers, 2021):

Experiments:
Test in all cases: DSF thermal shift assay
Format in all cases: binding
Settings in all cases: inhibitor 10 μM, protein 2 μM
MAPK15 = target: T1, MAPK15 (Homo sapiens, UniProt Q8TD08)
T1 construct: purchased in-house DSF (thermal shift) panel per Fedorov et al
Method: (§1) Differences in the melting temperature (ΔTm) were measured as described by Fedorov et al.. Purified proteins were buffered in 25 mM HEPES (pH 7.5), 500 mM NaCl and were assayed in a 384-well plate with a final protein concentration of 2 μM in 10 μL assay volume. Inhibitors were added to a final concentration of 10 μM using an ECHO 550 acoustic dispenser (Labcyte, San José, CA, USA). As a fluorescence probe, SYPRO-Orange (Molecular Probes, Eugene, OR, USA) was added in a 1:5000 dilution. […] Data were analyzed through Boltzmann equation in the Protein Thermal Shift software (Applied Biosystems, Waltham, MA, USA). Samples were measured in technical duplicates.

NEK1 = target: T2, NEK1 (Homo sapiens, UniProt Q96PY6)
T2 construct: purchased in-house DSF (thermal shift) panel per Fedorov et al
Method: as §1

TAF1 = target: T3, TAF1 (Homo sapiens, UniProt P21675)
T3 construct: purchased in-house DSF (thermal shift) panel per Fedorov et al
Method: as §1

PHKG2 = target: T4, PHKG2 (Homo sapiens, UniProt P15735)
T4 construct: purchased in-house DSF (thermal shift) panel per Fedorov et al
T4 sequence (P15735 whole entry): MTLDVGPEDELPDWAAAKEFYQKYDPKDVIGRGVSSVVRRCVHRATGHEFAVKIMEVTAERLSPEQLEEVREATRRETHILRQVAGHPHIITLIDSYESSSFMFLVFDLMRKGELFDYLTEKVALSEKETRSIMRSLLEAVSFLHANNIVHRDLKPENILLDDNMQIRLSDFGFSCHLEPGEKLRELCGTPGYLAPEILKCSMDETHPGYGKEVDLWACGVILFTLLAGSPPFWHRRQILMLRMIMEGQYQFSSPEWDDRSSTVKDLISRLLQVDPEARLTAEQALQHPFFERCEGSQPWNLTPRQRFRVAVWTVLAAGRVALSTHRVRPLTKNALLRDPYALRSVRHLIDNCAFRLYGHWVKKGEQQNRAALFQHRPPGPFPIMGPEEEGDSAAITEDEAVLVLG
Method: as §1

BRAF = target: T5, BRAF (Homo sapiens, UniProt P15056)
T5 construct: purchased in-house DSF (thermal shift) panel per Fedorov et al
Method: as §1

BMX = target: T6, BMX (Homo sapiens, UniProt P51813)
T6 construct: purchased in-house DSF (thermal shift) panel per Fedorov et al; IC50 follow-up at Reaction Biology Corp
Method: as §1

GPRK5 = target: T7, GPRK5 (Homo sapiens, UniProt P34947)
T7 construct: purchased in-house DSF (thermal shift) panel per Fedorov et al
T7 sequence (P34947 whole entry): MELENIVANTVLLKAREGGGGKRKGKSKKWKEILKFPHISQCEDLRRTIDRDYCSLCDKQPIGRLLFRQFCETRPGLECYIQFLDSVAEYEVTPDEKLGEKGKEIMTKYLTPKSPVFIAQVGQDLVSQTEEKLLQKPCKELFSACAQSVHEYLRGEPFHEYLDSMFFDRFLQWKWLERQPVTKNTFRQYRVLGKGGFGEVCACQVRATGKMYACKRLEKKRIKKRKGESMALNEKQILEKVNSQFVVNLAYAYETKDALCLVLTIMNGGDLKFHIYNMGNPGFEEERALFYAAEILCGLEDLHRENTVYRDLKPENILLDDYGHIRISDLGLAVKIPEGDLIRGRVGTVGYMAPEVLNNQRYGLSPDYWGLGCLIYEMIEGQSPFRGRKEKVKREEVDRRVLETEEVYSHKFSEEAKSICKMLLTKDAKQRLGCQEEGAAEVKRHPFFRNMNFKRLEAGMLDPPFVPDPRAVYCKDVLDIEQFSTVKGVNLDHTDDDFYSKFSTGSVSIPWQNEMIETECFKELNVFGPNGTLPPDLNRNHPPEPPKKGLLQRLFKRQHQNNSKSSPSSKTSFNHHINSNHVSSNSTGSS
Method: as §1

MAPK1 = target: T8, MAPK1 (Homo sapiens, UniProt P28482)
T8 construct: purchased in-house DSF (thermal shift) panel per Fedorov et al; IC50 follow-up at Reaction Biology Corp
T8 sequence (P28482 whole entry): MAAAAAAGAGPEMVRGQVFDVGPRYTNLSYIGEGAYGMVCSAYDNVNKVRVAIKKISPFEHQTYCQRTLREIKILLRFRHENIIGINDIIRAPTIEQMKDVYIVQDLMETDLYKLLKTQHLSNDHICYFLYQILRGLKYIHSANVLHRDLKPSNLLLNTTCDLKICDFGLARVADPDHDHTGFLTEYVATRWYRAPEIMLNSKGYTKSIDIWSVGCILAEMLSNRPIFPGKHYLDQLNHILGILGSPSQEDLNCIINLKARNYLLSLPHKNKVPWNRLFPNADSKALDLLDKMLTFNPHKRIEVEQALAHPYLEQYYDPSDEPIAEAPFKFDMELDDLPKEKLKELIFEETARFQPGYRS
Method: as §1

VRK1 = target: T9, VRK1 (Homo sapiens, UniProt Q99986)
T9 construct: purchased in-house DSF (thermal shift) panel per Fedorov et al; IC50 follow-up at Reaction Biology Corp
Method: as §1

PAK4 = target: T10, PAK4 (Homo sapiens, UniProt O96013)
T10 construct: purchased in-house DSF (thermal shift) panel per Fedorov et al
T10 sequence (O96013 whole entry): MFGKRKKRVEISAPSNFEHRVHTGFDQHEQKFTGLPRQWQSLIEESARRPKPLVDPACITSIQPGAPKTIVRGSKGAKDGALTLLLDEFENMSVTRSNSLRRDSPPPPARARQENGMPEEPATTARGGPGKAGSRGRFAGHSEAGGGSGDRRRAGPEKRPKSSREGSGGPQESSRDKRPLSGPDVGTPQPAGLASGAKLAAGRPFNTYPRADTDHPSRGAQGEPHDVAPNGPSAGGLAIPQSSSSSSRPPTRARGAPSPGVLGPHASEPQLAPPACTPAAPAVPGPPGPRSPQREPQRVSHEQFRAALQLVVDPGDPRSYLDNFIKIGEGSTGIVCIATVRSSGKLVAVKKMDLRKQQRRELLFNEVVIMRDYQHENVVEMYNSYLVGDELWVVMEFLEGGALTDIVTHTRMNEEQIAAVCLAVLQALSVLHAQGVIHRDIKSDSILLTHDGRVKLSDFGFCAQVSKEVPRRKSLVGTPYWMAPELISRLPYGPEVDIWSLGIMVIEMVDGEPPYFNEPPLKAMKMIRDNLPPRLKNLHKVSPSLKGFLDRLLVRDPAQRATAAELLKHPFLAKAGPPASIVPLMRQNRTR
Method: as §1

DYRK1A = target: T11, DYRK1A (Homo sapiens, UniProt Q13627)
T11 construct: purchased in-house DSF (thermal shift) panel per Fedorov et al
Method: as §1

SRPK1 = target: T12, SRPK1 (Homo sapiens, UniProt Q96SB4)
T12 construct: purchased in-house DSF (thermal shift) panel per Fedorov et al
Method: as §1

ABL1 = target: T13, ABL1 (Homo sapiens, UniProt P00519)
T13 construct: purchased in-house DSF (thermal shift) panel per Fedorov et al; IC50 follow-up at Reaction Biology Corp
Method: as §1

PCTK1 = target: T14, PCTK1 (Homo sapiens, UniProt Q00536)
T14 construct: purchased in-house DSF (thermal shift) panel per Fedorov et al; IC50 follow-up at Reaction Biology Corp
Method: as §1

STK38L = target: T15, STK38L (Homo sapiens, UniProt Q9Y2H1)
T15 construct: purchased in-house DSF (thermal shift) panel per Fedorov et al; IC50 follow-up at Reaction Biology Corp
Method: as §1

CHEK2 = target: T16, CHEK2 (Homo sapiens, UniProt O96017)
T16 construct: purchased in-house DSF (thermal shift) panel per Fedorov et al; IC50 follow-up at Reaction Biology Corp
Method: as §1

MAPK9 = target: T17, MAPK9 (Homo sapiens, UniProt P45984)
T17 construct: purchased in-house DSF (thermal shift) panel per Fedorov et al
Method: as §1

FES = target: T18, FES (Homo sapiens, UniProt P07332)
T18 construct: purchased in-house DSF (thermal shift) panel per Fedorov et al; IC50 follow-up at Reaction Biology Corp
Method: as §1

NEK7 = target: T19, NEK7 (Homo sapiens, UniProt Q8TDX7)
T19 construct: purchased in-house DSF (thermal shift) panel per Fedorov et al
T19 sequence (Q8TDX7 whole entry): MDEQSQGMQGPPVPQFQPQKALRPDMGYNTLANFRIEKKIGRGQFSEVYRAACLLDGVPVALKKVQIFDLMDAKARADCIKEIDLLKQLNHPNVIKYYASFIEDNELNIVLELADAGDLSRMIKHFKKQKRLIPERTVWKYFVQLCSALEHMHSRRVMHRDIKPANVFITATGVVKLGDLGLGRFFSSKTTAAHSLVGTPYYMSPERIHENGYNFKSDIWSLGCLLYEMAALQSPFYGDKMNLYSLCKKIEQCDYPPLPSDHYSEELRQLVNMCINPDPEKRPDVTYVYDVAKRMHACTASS
Method: as §1

TLK1 = target: T20, TLK1 (Homo sapiens, UniProt Q9UKI8)
T20 construct: purchased in-house DSF (thermal shift) panel per Fedorov et al; IC50 follow-up at Reaction Biology Corp
T20 sequence (Q9UKI8 whole entry): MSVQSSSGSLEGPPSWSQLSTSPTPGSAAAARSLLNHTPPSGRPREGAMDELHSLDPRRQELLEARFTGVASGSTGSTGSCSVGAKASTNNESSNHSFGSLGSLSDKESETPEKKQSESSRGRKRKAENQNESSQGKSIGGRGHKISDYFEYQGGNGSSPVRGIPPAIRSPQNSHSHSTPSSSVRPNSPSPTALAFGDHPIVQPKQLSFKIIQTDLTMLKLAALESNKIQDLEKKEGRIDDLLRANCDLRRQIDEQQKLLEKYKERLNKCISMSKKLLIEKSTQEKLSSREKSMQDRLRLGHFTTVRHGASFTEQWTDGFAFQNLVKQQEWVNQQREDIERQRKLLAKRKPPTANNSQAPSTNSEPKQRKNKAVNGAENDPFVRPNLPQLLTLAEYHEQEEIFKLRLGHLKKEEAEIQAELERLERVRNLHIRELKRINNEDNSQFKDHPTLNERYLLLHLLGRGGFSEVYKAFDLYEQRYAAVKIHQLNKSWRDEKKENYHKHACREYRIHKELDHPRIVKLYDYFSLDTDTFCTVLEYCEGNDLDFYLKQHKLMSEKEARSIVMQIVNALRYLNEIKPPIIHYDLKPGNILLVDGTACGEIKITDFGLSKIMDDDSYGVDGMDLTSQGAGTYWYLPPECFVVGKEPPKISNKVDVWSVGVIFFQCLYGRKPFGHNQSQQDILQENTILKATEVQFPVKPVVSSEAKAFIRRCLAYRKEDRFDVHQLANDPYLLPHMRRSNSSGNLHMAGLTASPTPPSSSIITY
Method: as §1

MAPK10 = target: T21, MAPK10 (Homo sapiens, UniProt P53779)
T21 construct: purchased in-house DSF (thermal shift) panel per Fedorov et al
T21 sequence (P53779 whole entry): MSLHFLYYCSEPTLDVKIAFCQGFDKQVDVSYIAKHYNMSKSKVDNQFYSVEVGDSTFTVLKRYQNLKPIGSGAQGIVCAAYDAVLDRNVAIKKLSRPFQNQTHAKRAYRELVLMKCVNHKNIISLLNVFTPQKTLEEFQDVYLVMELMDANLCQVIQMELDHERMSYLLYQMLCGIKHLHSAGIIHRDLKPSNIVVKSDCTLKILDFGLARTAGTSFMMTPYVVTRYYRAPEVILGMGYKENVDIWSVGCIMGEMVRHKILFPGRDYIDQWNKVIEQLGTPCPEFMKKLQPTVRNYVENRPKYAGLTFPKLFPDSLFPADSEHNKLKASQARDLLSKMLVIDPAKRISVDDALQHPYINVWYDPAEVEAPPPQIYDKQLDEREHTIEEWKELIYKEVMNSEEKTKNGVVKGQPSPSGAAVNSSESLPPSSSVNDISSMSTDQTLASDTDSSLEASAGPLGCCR
Method: as §1

AURKB = target: T22, AURKB (Homo sapiens, UniProt Q96GD4)
T22 construct: purchased in-house DSF (thermal shift) panel per Fedorov et al
T22 sequence (Q96GD4 whole entry): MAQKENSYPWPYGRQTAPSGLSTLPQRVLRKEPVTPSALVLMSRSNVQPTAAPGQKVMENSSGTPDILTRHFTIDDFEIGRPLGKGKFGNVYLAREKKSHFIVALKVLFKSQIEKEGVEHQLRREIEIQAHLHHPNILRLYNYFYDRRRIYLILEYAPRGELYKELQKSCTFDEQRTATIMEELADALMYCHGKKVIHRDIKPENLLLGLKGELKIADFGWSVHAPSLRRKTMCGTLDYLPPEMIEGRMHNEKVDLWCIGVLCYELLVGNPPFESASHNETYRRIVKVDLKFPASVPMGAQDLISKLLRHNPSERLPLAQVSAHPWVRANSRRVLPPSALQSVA
Method: as §1

AKT3 = target: T23, AKT3 (Homo sapiens, UniProt Q9Y243)
T23 construct: purchased in-house DSF (thermal shift) panel per Fedorov et al
T23 sequence (Q9Y243 whole entry): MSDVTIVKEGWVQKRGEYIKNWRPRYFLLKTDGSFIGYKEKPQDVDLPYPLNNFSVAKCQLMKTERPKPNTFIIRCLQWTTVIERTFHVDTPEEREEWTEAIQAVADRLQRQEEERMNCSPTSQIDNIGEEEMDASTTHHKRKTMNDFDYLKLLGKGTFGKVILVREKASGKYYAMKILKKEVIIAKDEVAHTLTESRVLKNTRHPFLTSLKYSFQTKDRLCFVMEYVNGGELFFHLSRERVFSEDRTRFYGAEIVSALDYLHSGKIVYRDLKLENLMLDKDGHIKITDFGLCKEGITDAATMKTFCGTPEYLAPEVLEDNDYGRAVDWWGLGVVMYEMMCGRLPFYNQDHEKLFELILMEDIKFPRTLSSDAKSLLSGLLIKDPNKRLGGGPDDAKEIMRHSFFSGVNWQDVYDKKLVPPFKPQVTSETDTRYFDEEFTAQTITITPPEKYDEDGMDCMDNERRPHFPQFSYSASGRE
Method: as §1

MAPK8 = target: T24, MAPK8 (Homo sapiens, UniProt P45983)
T24 construct: purchased in-house DSF (thermal shift) panel per Fedorov et al; IC50 follow-up at Reaction Biology Corp
Method: as §1

MAPK14 = target: T25, MAPK14 (Homo sapiens, UniProt Q16539)
T25 construct: purchased in-house DSF (thermal shift) panel per Fedorov et al
Method: as §1

SRC = target: T26, SRC (Homo sapiens, UniProt P12931)
T26 construct: purchased in-house DSF (thermal shift) panel per Fedorov et al
Method: as §1

T1 sequence (Q8TD08 whole entry): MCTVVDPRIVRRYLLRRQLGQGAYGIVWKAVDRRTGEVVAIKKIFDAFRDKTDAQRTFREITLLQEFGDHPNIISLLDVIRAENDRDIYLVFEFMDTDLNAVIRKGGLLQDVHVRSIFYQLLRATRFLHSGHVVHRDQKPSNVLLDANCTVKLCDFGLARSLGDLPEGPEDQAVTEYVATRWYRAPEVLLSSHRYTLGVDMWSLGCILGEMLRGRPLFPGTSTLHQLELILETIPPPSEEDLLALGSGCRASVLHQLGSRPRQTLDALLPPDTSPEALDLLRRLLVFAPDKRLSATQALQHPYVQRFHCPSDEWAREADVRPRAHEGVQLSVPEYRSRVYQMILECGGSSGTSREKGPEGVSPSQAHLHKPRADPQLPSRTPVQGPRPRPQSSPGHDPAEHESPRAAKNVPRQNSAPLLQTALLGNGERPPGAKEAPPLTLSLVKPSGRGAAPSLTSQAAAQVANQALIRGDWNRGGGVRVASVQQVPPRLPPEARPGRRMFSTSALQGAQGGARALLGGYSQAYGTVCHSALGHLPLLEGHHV

ΔTm at 10 µM (NEK1): -0.7 °C | ΔTm at 10 µM (TAF1): 0.1 °C | ΔTm at 10 µM (PHKG2): 0.2 °C | ΔTm at 10 µM (BRAF): -0.1 °C | ΔTm at 10 µM (BMX): -0.5 °C | ΔTm at 10 µM (GPRK5): -0.6 °C | ΔTm at 10 µM (MAPK1): -0.2 °C | ΔTm at 10 µM (VRK1): -0.4 °C | ΔTm at 10 µM (PAK4): 0.8 °C | ΔTm at 10 µM (DYRK1A): -2.4 °C | ΔTm at 10 µM (SRPK1): 0 °C | ΔTm at 10 µM (ABL1): 0.6 °C | ΔTm at 10 µM (PCTK1): -0.2 °C | ΔTm at 10 µM (STK38L): -0.2 °C | ΔTm at 10 µM (CHEK2): 0.4 °C | ΔTm at 10 µM (MAPK9): 0 °C | ΔTm at 10 µM (FES): 0 °C | ΔTm at 10 µM (NEK7): 0.2 °C | ΔTm at 10 µM (TLK1): 0 °C | ΔTm at 10 µM (MAPK10): 0.1 °C | ΔTm at 10 µM (AURKB): 0 °C | ΔTm at 10 µM (AKT3): 0.2 °C | ΔTm at 10 µM (MAPK8): 0.3 °C | ΔTm at 10 µM (MAPK14): -0.5 °C | ΔTm at 10 µM (SRC): -0.5 °C
Compound: CCc1cnc(Nc2nc(Cl)ccc2[N+](=O)[O-])nc1N1CCN(Cc2nc3cc(C(F)(F)F)ccc3[nH]2)CC1 [Compound 2]
ΔTm at 10 µM (MAPK15): -0.2 °C
